Reference: patent US20100234417A1, “THYROTROPIN RELEASING HORMONE RECEPTOR-OREXIN RECEPTOR HETERO-DIMERS/-OLIGOMERS” (DIMERIX BIOSCIENCE PTY LTD., priority 2006, published 2010)
Ends that are not written are not given here.

How the values were obtained:
Assay type in all cases: cell-based
OxR2 = target: T1, OxR2 (Homo sapiens, UniProt O43614); assay: BRET/eBRET beta-arrestin 2 recruitment to OxR2/Rluc or OxR2/Rluc8 without IG3 (pcDNA3); settings: OxR2/Rluc8 + barr2/Venus + pcDNA3; FIG. 18
T1 construct: expressed in transfected cells; host or cells: HEK293 (HEK293FT)
T1 sequence (O43614 1-444): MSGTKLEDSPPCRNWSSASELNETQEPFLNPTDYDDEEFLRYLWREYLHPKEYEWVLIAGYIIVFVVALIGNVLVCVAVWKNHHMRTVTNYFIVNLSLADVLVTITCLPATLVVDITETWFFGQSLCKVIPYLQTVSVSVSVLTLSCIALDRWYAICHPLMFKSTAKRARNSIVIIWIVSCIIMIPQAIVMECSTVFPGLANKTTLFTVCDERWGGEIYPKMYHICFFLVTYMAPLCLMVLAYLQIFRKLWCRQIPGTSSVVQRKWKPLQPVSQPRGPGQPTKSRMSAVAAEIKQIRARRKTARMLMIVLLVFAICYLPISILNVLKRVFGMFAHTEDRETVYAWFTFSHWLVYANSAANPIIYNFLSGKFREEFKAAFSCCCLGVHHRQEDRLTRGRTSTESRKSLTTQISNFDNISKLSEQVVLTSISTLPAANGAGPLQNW
Experimental: (§1) Briefly, referring to FIGS. 1 to 3, the IGs are provided in the form of the two receptors (TRHR and OxR). One of the two is attached to an RC (IG1-RC1, IG3). A second IG (IG2-RC2) is derived from a molecule that interacts with the receptors upon ligand binding (e.g. beta-arrestin, or a mutant thereof).
Cells were seeded in 6-well plates at a density of approximately 630,000 cells/well (HEK293FT) or approximately 150,000 cells/well (COS-7) and maintained at 37° C., 5% CO2 in Complete Media (DMEM containing 0.3 mg/ml glutamine, 100 IU/ml penicillin and 100 μg/ml streptomycin (Gibco)) supplemented with 10% fetal calf serum (FCS; Gibco). […] Filtered light emissions were sequentially measured for 3-5 s in each of the ‘donor wavelength window’ (400-475 nm) and ‘acceptor wavelength window’ (>500 nm for EGFP or 520-540 nm for EYFP, Topaz (TYFP) or Venus). […] In this case, data are shown as ‘fluorescence/luminescence’ being the ratio of light emission through the ‘acceptor wavelength window’ over the 400-475 nm emission for a particular cell sample. Unless otherwise stated, BRET signals were measured in 96-well microplates.
Referring now to FIG. 18, eBRET signals were measured from cells transiently co-expressing OxR2/Rluc8 and barr2/Venus either with HA-TRHR or pcDNA3.

[1] = tested on: thyrotropin releasing hormone receptor/orexin receptor hetero-dimer/-oligomer (TRHR with OxR1); assay: eBRET: TRHR/Rluc + barr2/Venus + OxR1 as IG3 in HEK293 cells; settings: TRHR/Rluc + barr2/Venus + OxR1; 10^−6M OxA; FIG. 6
Experimental: as §1
(§2) Cells were seeded in 6-well plates at a density of approximately 630,000 cells/well (HEK293FT) or approximately 150,000 cells/well (COS-7) and maintained at 37° C., 5% CO2 in Complete Media (DMEM containing 0.3 mg/ml glutamine, 100 IU/ml penicillin and 100 μg/ml streptomycin (Gibco)) supplemented with 10% fetal calf serum (FCS; Gibco). Transient transfections were carried out 24 h after seeding using GeneJuice (Novagen) or Metafectene (Biontex) according to manufacturer instructions. 24 h post-transfection, cells were washed with PBS, detached using 0.05% trypsin/0.53 mM EDTA, resuspended in HEPES-buffered phenol red free Complete Media containing 5% FCS and added to a poly-L-lysine-coated white microplate (Nunc). 48 h post-transfection, eBRET assays were carried out following pre-incubation of cells with EnduRen™ (Promega) at a final concentration of 30-40 μM, at 37° C., 5% CO2 for 2 h. For original BRET studies, the HEPES-buffered phenol red free Complete Media was replaced with PBS and coelenterazine h (Molecular Probes) added to a final concentration of 5 μM immediately prior to commencing the assay. […] Filtered light emissions were sequentially measured for 3-5 s in each of the ‘donor wavelength window’ (400-475 nm) and ‘acceptor wavelength window’ (>500 nm for EGFP or 520-540 nm for EYFP, Topaz (TYFP) or Venus). The BRET signal observed between interacting proteins is normalized by subtracting the background BRET ratio. […] In this case, data are shown as ‘fluorescence/luminescence’ being the ratio of light emission through the ‘acceptor wavelength window’ over the 400-475 nm emission for a particular cell sample. Unless otherwise stated, BRET signals were measured in 96-well microplates. […]

[2] = tested on: thyrotropin releasing hormone receptor/orexin receptor hetero-dimer/-oligomer (TRHR with OxR2); assay: eBRET/BRET detection of TRHR-OxR2 association: TRHR/Rluc + tagged beta-arrestin + OxR2 as IG3 in HEK293 cells
Experimental: as §1
as §2, with “In the following examples, the first calculation will be used, unless the signal is described as the ‘ligand-induced BRET ratio’. […] In” for “In”
Cells not pretreated with antagonist were pretreated with PBS instead for the same amount of time. […]

[3] = HEK293, TRHR/Rluc + barr2/Venus + OxR2, ligand 10^−6M, FIG. 4

Row | Molecule | ligand-induced eBRET signal (OxR2) | eBRET signal [1] | eBRET signal [2, 3] | time for eBRET signal to reach its level [2, 3] | time for eBRET signal to reach plateau ([2]; TRHR/Rluc + HA-OxR2 + EGFP/barr1 or EGFP/barr2, FIG. 7) | time for eBRET signal to reach plateau ([2]; TRHR/Rluc + OxR2 + EGFP/barr1, FIG. 8) | time for eBRET signal to reach plateau ([2]; TRHR/Rluc + OxR2 + EGFP/barr1R169E, FIG. 8) [min] | time for eBRET signal to reach plateau ([2]; TRHR/Rluc + OxR2 + EGFP/barr1 or EGFP/barr2, FIG. 5) | eBRET signal ([2]; TRHR/Rluc + barr2/Venus + OxR2, 10^−6M OxA, FIG. 6) | dose-response Hill slope ([2]; TRHR/Rluc + barr2/Venus + OxR2, FIG. 12)
1 | NC(=O)[C@@H]1CCCN1C(=O)[C@H](Cc1cnc[nH]1)NC(=O)[C@@H]1CCC(=O)N1 [TRH, pGlu-His-Pro-NH2] | No ligand-induced eBRET signal was observed |  |  |  |  |  |  |  |  | 
2 | OxA: orexin A; known orexin receptor modulator, used as IG3 ligand (modulator) (QPLPDCCRQKTCSCRLYELLHGAGNHAAGILTL; ends and bridges not checked; cysteine pairing not given here; UniProt O43612 34-66, looked up) |  | small eBRET signal | 0.07-0.08 | up to 30 minutes | more than 10 minutes | more than 10 minutes | ≤ 20 | more than 10 minutes | eBRET signal was observed | greater than 1
